Converted amounts (≈) assume the structure as drawn. Numbered stars: 1 amine (or outer) side, 2 acyl side, 3 side chain; on linkers, the order of the positions; unused ones are H or OH. Side chains are listed from the residue outwards. Peptide text beside a SMILES is read from it. * marks the point of attachment. C20 diacid = O=C(O)CCCCCCCCCCCCCCCCCCC(=O)*; C16 diacid = O=C(O)CCCCCCCCCCCCCCC(=O)*; γGlu = O=C(O)[C@H](CCC(=O)[*:2])N[*:1]; AEEA = NCCOCCOCC(=O)O
How the values were obtained:
[1] = Assay (IV) determination of solubility; format: physicochemical
Experimental: Assay (IV)—Determination of Solubility
The mimylin peptide was dissolved in water at ˜500 nmol/ml and mixed 1:1 with a series of buffers (100 mM glycylglycine pH 3.0, 100 mM glycylglycine pH 4.0, 100 mM glycylglycine pH 5.0, 100 mM bistrispropane pH 6.0, 100 mM bistrispropane pH 6.5, 100 mM bistrispropane pH 7.0, 100 mM bistrispropane pH 7.5, 100 mM bistrispropane pH 8.0).

rat calcitonin receptor = target: T1, rat calcitonin receptor (Rattus norvegicus, UniProt P32214); assay: Assay (VIII) binding to the rat calcitonin receptor; conditions: membranes; read-out: rCT-R binding IC50
T1 construct: expressed in transfected cells; host or cells: BHK tk'ts 13 (transient, FuGENE 6)
T1 sequence (P32214 25-479 isoform P32214-2 limits assumed): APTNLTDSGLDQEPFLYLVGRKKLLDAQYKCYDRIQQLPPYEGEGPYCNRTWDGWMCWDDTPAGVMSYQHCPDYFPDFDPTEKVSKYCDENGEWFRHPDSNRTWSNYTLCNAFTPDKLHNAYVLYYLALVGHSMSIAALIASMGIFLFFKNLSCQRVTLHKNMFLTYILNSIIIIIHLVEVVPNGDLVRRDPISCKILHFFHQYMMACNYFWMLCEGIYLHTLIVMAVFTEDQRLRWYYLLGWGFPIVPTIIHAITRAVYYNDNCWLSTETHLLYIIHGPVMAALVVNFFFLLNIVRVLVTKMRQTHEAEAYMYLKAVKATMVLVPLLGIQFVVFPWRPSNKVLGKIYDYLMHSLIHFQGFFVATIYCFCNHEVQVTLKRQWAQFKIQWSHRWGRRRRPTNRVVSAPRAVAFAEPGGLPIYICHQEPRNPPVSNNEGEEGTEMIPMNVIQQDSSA
In short: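 Affinity given as IC50 from a one-site competition fit of bound radioactivity, counted by scintillation after cold HBSS washes and NaOH/SDS lysis. Membranes came from BHK tk'ts 13 cells transiently expressing the rat receptor; other conditions followed the human calcitonin receptor protocol.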

| SMILES | Solubility ([1]; pH 3.0) | Solubility ([1]; pH 4.0) | solubility at 18 h ([1]; pH 5.0) | Solubility ([1]; pH 6.0) | Solubility ([1]; pH 6.5) | Solubility ([1]; pH 7.0) | Solubility ([1]; pH 7.5) | Solubility ([1]; pH 8.0) | IC50 (rat calcitonin receptor) | Solubility ([1]; pH 5.0) |
| --- | --- | --- | --- | --- | --- | --- | --- | --- | --- | --- |
| CC(C)C[C@H](NC(=O)[C@H](C)NC(=O)[C@H](C)NC(=O)[C@@H](NC(=O)[C@H](CO)NC(=O)[C@H](CC(C)C)NC(=O)[C@H](CCC(=O)O)NC(=O)[C@H](CO)NC(=O)[C@H](C)NC(=O)CC[C@H](NC(=O)CCCCCCCCCCCCCCC(=O)O)C(=O)O)[C@@H](C)O)C(=O)NCC(=O)N[C@@H](CCCNC(=N)N)C(=O)N[C@@H](CC(C)C)C(=O)N[C@@H](CO)C(=O)N[C@@H](C)C(=O)N[C@@H](CCC(=O)O)C(=O)N[C@@H](CC(C)C)C(=O)N[C@@H](Cc1cnc[nH]1)C(=O)N[C@@H](CCC(=O)O)C(=O)N[C@@H](CC(C)C)C(=O)N[C@@H](C)C(=O)N[C@H](C(=O)N[C@@H](CC(C)C)C(=O)N1CCC[C@H]1C(=O)N[C@@H](CCCNC(=N)N)C(=O)N[C@H](C(=O)N[C@@H](CCC(=O)O)C(=O)N[C@H](C(=O)NCC(=O)N[C@@H](CO)C(=O)NCC(=O)N[C@@H](CO)C(=O)N1CCC[C@H]1C(N)=O)[C@@H](C)O)[C@@H](C)O)[C@@H](C)O [compound 47, [N-terminal(C16 diacid-gGlu), des1, 30S, 31G]mimylin] ({C16 diacid-γGlu}-ASELSTAALGRLSAELHELATLPRTETGSGSP-NH2) | ≧200 μM | ≧200 μM |  | ≧200 μM | ≧200 μM | ≧200 μM | ≧200 μM | ≧200 μM | 0.013 nM | ≧200 μM |
| CC(C)C[C@H](NC(=O)[C@H](C)NC(=O)[C@H](C)NC(=O)[C@@H](NC(=O)[C@H](CO)NC(=O)[C@H](CC(C)C)NC(=O)[C@H](CCC(=O)O)NC(=O)[C@H](CO)NC(=O)[C@H](C)NC(=O)CC[C@H](NC(=O)CCCCCCCCCCCCCCCCCCC(=O)O)C(=O)O)[C@@H](C)O)C(=O)NCC(=O)N[C@@H](CCCNC(=N)N)C(=O)N[C@@H](CC(C)C)C(=O)N[C@@H](CO)C(=O)N[C@@H](C)C(=O)N[C@@H](CCC(=O)O)C(=O)N[C@@H](CC(C)C)C(=O)N[C@@H](Cc1cnc[nH]1)C(=O)N[C@@H](CCC(=O)O)C(=O)N[C@@H](CC(C)C)C(=O)N[C@@H](C)C(=O)N[C@H](C(=O)N[C@@H](CC(C)C)C(=O)N1CCC[C@H]1C(=O)N[C@@H](CCCNC(=N)N)C(=O)N[C@H](C(=O)N[C@@H](CCC(=O)O)C(=O)N[C@H](C(=O)NCC(=O)N[C@@H](CO)C(=O)NCC(=O)N[C@@H](CO)C(=O)N[C@@H](Cc1cnc[nH]1)C(N)=O)[C@@H](C)O)[C@@H](C)O)[C@@H](C)O [compound 60, [N-terminal(C20 diacid-gGlu), des1, 30S, 31G, 33H]mimylin] ({C20 diacid-γGlu}-ASELSTAALGRLSAELHELATLPRTETGSGSH-NH2) | ≧200 μM | ≧200 μM |  | ≧200 μM | ≧200 μM | ≧200 μM | ≧200 μM | ≧200 μM | 0.02 nM | ≧200 μM |
| CC(C)C[C@H](NC(=O)[C@H](C)NC(=O)[C@H](C)NC(=O)[C@@H](NC(=O)[C@H](CO)NC(=O)[C@H](CC(C)C)NC(=O)[C@H](CCC(=O)O)NC(=O)[C@H](CO)NC(=O)[C@H](C)NC(=O)CC[C@H](NC(=O)CCCCCCCCCCCCCCCCCCC(=O)O)C(=O)O)[C@@H](C)O)C(=O)NCC(=O)N[C@@H](CCCNC(=N)N)C(=O)N[C@@H](CC(C)C)C(=O)N[C@@H](CO)C(=O)N[C@@H](C)C(=O)N[C@@H](CCC(=O)O)C(=O)N[C@@H](CC(C)C)C(=O)N[C@@H](Cc1cnc[nH]1)C(=O)N[C@@H](CCC(=O)O)C(=O)N[C@@H](CC(C)C)C(=O)N[C@@H](C)C(=O)N[C@H](C(=O)N[C@@H](Cc1ccc(O)cc1)C(=O)N1CCC[C@H]1C(=O)N[C@@H](CCCNC(=N)N)C(=O)N[C@H](C(=O)N[C@@H](CCC(=O)O)C(=O)N[C@H](C(=O)NCC(=O)N[C@@H](CO)C(=O)NCC(=O)N[C@@H](C)C(=O)N1CCC[C@H]1C(N)=O)[C@@H](C)O)[C@@H](C)O)[C@@H](C)O [compound 81, [N-terminal(C20 diacid-gGlu), des1, 23Y, 30S, 31G, 32A]mimylin] ({C20 diacid-γGlu}-ASELSTAALGRLSAELHELATYPRTETGSGAP-NH2) | ≧200 μM | ≧200 μM |  | ≧200 μM | ≧200 μM | ≧200 μM | ≧200 μM | ≧200 μM | 0.039 nM | ≧200 μM |

The remaining lines, values ahead:

| Solubility ([1]; pH 3.0) | Solubility ([1]; pH 4.0) | solubility at 18 h ([1]; pH 5.0) | Solubility ([1]; pH 6.0) | Solubility ([1]; pH 6.5) | Solubility ([1]; pH 7.0) | Solubility ([1]; pH 7.5) | Solubility ([1]; pH 8.0) | IC50 (rat calcitonin receptor) | Solubility ([1]; pH 5.0) | SMILES |
| --- | --- | --- | --- | --- | --- | --- | --- | --- | --- | --- |
| ≧200 μM | ≧200 μM | 73 µM (≈ 273 µg/mL) | ≧200 μM | ≧200 μM | ≧200 μM | ≧200 μM | ≧200 μM | 0.023 nM |  | CC(C)C[C@H](NC(=O)[C@H](C)NC(=O)[C@H](C)NC(=O)[C@@H](NC(=O)[C@H](CO)NC(=O)[C@H](CC(C)C)NC(=O)[C@H](CCC(=O)O)NC(=O)[C@H](CO)NC(=O)[C@H](C)NC(=O)CC[C@H](NC(=O)CCCCCCCCCCCCCCCCCCC(=O)O)C(=O)O)[C@@H](C)O)C(=O)NCC(=O)N[C@@H](CCCNC(=N)N)C(=O)N[C@@H](CC(C)C)C(=O)N[C@@H](CO)C(=O)N[C@@H](C)C(=O)N[C@@H](CCC(=O)O)C(=O)N[C@@H](CC(C)C)C(=O)N[C@@H](Cc1cnc[nH]1)C(=O)N[C@@H](CCC(=O)O)C(=O)N[C@@H](CC(C)C)C(=O)N[C@@H](C)C(=O)N[C@H](C(=O)N[C@@H](CC(C)C)C(=O)N1CCC[C@H]1C(=O)N[C@@H](CCCNC(=N)N)C(=O)N[C@H](C(=O)N[C@@H](CCC(=O)O)C(=O)N[C@H](C(=O)NCC(=O)N[C@@H](CO)C(=O)NCC(=O)N[C@@H](CO)C(=O)N[C@@H](Cc1ccc(O)cc1)C(N)=O)[C@@H](C)O)[C@@H](C)O)[C@@H](C)O [compound 59, [N-terminal(C20 diacid-gGlu), des1, 30S, 31G, 33Y]mimylin] ({C20 diacid-γGlu}-ASELSTAALGRLSAELHELATLPRTETGSGSY-NH2) |
| ≧200 μM | ≧200 μM |  | ≧200 μM | ≧200 μM | ≧200 μM | ≧200 μM | ≧200 μM | 0.044 nM | ≧200 μM | CC(C)C[C@H](NC(=O)[C@H](C)NC(=O)[C@H](C)NC(=O)[C@@H](NC(=O)[C@H](CO)NC(=O)[C@H](CC(C)C)NC(=O)[C@H](CCC(=O)O)NC(=O)[C@H](CO)NC(=O)[C@H](C)NC(=O)COCCOCCNC(=O)CC[C@H](NC(=O)CCCCCCCCCCCCCCCCCCC(=O)O)C(=O)O)[C@@H](C)O)C(=O)NCC(=O)N[C@@H](CCCNC(=N)N)C(=O)N[C@@H](CC(C)C)C(=O)N[C@@H](CO)C(=O)N[C@@H](C)C(=O)N[C@@H](CCC(=O)O)C(=O)N[C@@H](CC(C)C)C(=O)N[C@@H](Cc1cnc[nH]1)C(=O)N[C@@H](CCC(=O)O)C(=O)N[C@@H](CC(C)C)C(=O)N[C@@H](C)C(=O)N[C@H](C(=O)N[C@@H](CC(C)C)C(=O)N1CCC[C@H]1C(=O)N[C@@H](CCCNC(=N)N)C(=O)N[C@H](C(=O)N[C@@H](CCC(=O)O)C(=O)N[C@H](C(=O)NCC(=O)N[C@@H](CO)C(=O)NCC(=O)N[C@@H](CO)C(=O)N1CCC[C@H]1C(N)=O)[C@@H](C)O)[C@@H](C)O)[C@@H](C)O [compound 41, [N-terminal(C20 diacid-gGlu-OEG), des1, 30S, 31G]mimylin] ({C20 diacid-γGlu-AEEA}-ASELSTAALGRLSAELHELATLPRTETGSGSP-NH2) |
| ≧200 μM | ≧200 μM |  | ≧200 μM | ≧200 μM | ≧200 μM | ≧200 μM | ≧200 μM | 0.044 nM | ≧200 μM | CC(C)C[C@H](NC(=O)[C@H](C)NC(=O)[C@H](C)NC(=O)[C@@H](NC(=O)[C@H](CO)NC(=O)[C@H](CC(C)C)NC(=O)[C@H](CCC(=O)O)NC(=O)[C@H](CO)NC(=O)[C@H](C)N)[C@@H](C)O)C(=O)NCC(=O)N[C@@H](CCCNC(=N)N)C(=O)N[C@@H](CC(C)C)C(=O)N[C@@H](CO)C(=O)N[C@@H](C)C(=O)N[C@@H](CCC(=O)O)C(=O)N[C@@H](CC(C)C)C(=O)N[C@@H](Cc1cnc[nH]1)C(=O)N[C@@H](CCCCNC(=O)CC[C@H](NC(=O)CCCCCCCCCCCCCCCCCCC(=O)O)C(=O)O)C(=O)N[C@@H](CC(C)C)C(=O)N[C@@H](C)C(=O)N[C@H](C(=O)N[C@@H](CC(C)C)C(=O)N1CCC[C@H]1C(=O)N[C@@H](CCCNC(=N)N)C(=O)N[C@H](C(=O)N[C@@H](CCC(=O)O)C(=O)N[C@H](C(=O)NCC(=O)N[C@@H](CO)C(=O)NCC(=O)N[C@@H](CO)C(=O)N1CCC[C@H]1C(N)=O)[C@@H](C)O)[C@@H](C)O)[C@@H](C)O [compound 54, [des1, 19K(C20 diacid-gGlu), 30S, 31G]mimylin] (H-ASELSTAALGRLSAELHK([γGlu-C20 diacid])LATLPRTETGSGSP-NH2) |

From US9593149B2, “Amylin and calcitonin receptor agonist” (Novo Nordisk A/S, priority 2014, dated 2017)
